Measured values taken from DBAASP.
≈ marks a conversion by molar mass, not a printed value. Where “and” joins values, the source holds several entries; their conditions need not be identical. Equal values may be shown once.

Columns and labels:
Test in all cases: ≥ marks a high value that may be exact or a test limit, other limits are often not marked, values filed in µg/mL are converted to µM
Aeromonas salmonicida = tested on: Aeromonas salmonicida
[1] = tested on: Pseudomonas aeruginosa K799
[2] = tested on: Pseudomonas aeruginosa Z61
[3] = tested on: Salmonella enterica serovar typhimurium MS7953s
[4] = tested on: Salmonella enterica subsp. enterica serovar Typhimurium ATCC 14028s
[5] = tested on: Staphylococcus epidermidis C621
Vibrio anguillarum = tested on: Vibrio anguillarum
[6] = tested on: Candida albicans ATCC 10231
[7] = tested on: Cryptococcus neoformans ATCC 32264
[8] = tested on: Escherichia coli ATCC 25922
Escherichia coli = tested on: Escherichia coli
[9] = tested on: Pseudomonas aeruginosa ATCC 27853
[10] = tested on: Salmonella enterica subsp. enterica serovar Enteritidis
Salmonella sp. = tested on: Salmonella sp.
[11] = tested on: Staphylococcus aureus ATCC 29213
[12] = tested on: Staphylococcus aureus ATCC 43300
Yersinia enterocolitica = tested on: Yersinia enterocolitica
[13] = tested on: Candida albicans ATCC 64549
[14] = tested on: Acinetobacter baumannii ATCC 7978
[15] = tested on: Enterococcus faecium E007
[16] = tested on: Staphylococcus aureus ATCC 29231
Bacillus subtilis DELTA = tested on: Bacillus subtilis DELTA
Candida parapsilosis = tested on: Candida parapsilosis
[17] = tested on: Escherichia coli DH5alpha
[18] = tested on: Pseudomonas aeruginosa PAO1
[19] = tested on: Zymomonas mobilis ATCC 10988
Candida albicans DBFIQ 1 = tested on: Candida albicans DBFIQ 1
Candida albicans PEEC 2 = tested on: Candida albicans PEEC 2
[20] = tested on: Candida tropicalis DBFIQ 3
[21] = tested on: Enterococcus faecalis ATCC 29212
[22] = tested on: Escherichia coli ATCC 35218
[23] = tested on: Staphylococcus aureus ATCC 25923
[24] = tested on: Staphylococcus aureus BSF FBCB1313
[25] = tested on: Acinetobacter baumannii 97830
[26] = tested on: Acinetobacter baumannii 9931
[27] = tested on: Acinetobacter baumannii ATCC 19606
[28] = tested on: Bacillus subtilis ATCC 23857
Escherichia coli 780 = tested on: Escherichia coli 780
Escherichia coli 804 = tested on: Escherichia coli 804
[29] = tested on: Klebsiella pneumoniae ATCC 700603
[30] = tested on: Pseudomonas aeruginosa 50
[31] = tested on: Pseudomonas aeruginosa 73
[32] = tested on: Pseudomonas aeruginosa ATCC 9027
[33] = tested on: Staphylococcus aureus 113
Staphylococcus aureus 75 = tested on: Staphylococcus aureus 75
[34] = tested on: Staphylococcus epidermidis ATCC 12228

CSCC[C@H](NC(=O)[C@@H](NC(=O)[C@H](CCCCN)NC(=O)[C@H](Cc1c[nH]c2ccccc12)NC(=O)[C@H](CC(C)C)NC(=O)[C@H](C)N)[C@@H](C)O)C(=O)N[C@@H](CC(C)C)C(=O)N[C@@H](CCCCN)C(=O)N[C@@H](CCCCN)C(=O)N[C@@H](C)C(=O)N[C@@H](C)C(=O)N[C@@H](Cc1cnc[nH]1)C(=O)N[C@H](C(=O)NCC(=O)N[C@@H](CCCCN)C(=O)N[C@@H](Cc1cnc[nH]1)C(=O)N[C@H](C(=O)NCC(=O)N[C@@H](CCCCN)C(=O)N[C@@H](C)C(=O)N[C@@H](C)C(=O)N[C@@H](CC(C)C)C(=O)N[C@H](C(=O)N[C@@H](Cc1cnc[nH]1)C(=O)N[C@@H](Cc1ccc(O)cc1)C(=O)N[C@@H](CC(C)C)C(=O)N[C@@H](CC(N)=O)C(=O)O)[C@@H](C)O)C(C)C)C(C)C [ALWKTMLKKAAHVGKHVGKAALTHYLN]
MIC (Aeromonas salmonicida): 0.335 µM (≈ 1 µg/mL) | MIC [1]: 1.34 µM (≈ 4 µg/mL) | MIC [2]: 2.68 µM (≈ 8 µg/mL) | MIC [3]: 0.167 µM (≈ 0.5 µg/mL) | MIC [4]: 1.34 µM (≈ 4 µg/mL) | MIC [5]: 1.34 µM (≈ 4 µg/mL) | MIC (Vibrio anguillarum): 1.34 µM (≈ 4 µg/mL)

CC[C@H](C)[C@H](NC(=O)[C@H](CCC(N)=O)NC(=O)[C@@H](N)CCCN=C(N)N)C(=O)N[C@@H](CCCN=C(N)N)C(=O)N[C@@H](CCCN=C(N)N)C(=O)N[C@@H](Cc1c[nH]c2ccccc12)C(=O)N[C@@H](Cc1c[nH]c2ccccc12)C(=O)N[C@@H](CCC(N)=O)C(=O)N[C@@H](Cc1c[nH]c2ccccc12)C(=O)N[C@@H](CCCN=C(N)N)C(=O)N[C@@H](CCCN=C(N)N)C(N)=O [RQIRRWWQWRR]
MIC [6]: 50 µM (≈ 86.3 µg/mL) | MIC [7]: 25 µM (≈ 43.2 µg/mL)

CC[C@H](C)[C@H](NC(=O)[C@H](CCC(N)=O)NC(=O)[C@@H](N)CCCN=C(N)N)C(=O)N[C@@H](Cc1c[nH]c2ccccc12)C(=O)N[C@@H](CCCN=C(N)N)C(=O)N[C@@H](Cc1c[nH]c2ccccc12)C(=O)N[C@@H](Cc1c[nH]c2ccccc12)C(=O)N[C@@H](CCC(N)=O)C(=O)N[C@@H](Cc1c[nH]c2ccccc12)C(N)=O [RQIWRWWQW]
MIC [8]: > 50 µM | MIC (Escherichia coli): > 50 µM | MIC [9]: > 50 µM | MIC [10]: ≥ 50 µM | MIC (Salmonella sp.): ≥ 50 µM | MIC [11]: > 50 µM | MIC [12]: > 50 µM | MIC (Yersinia enterocolitica): ≥ 50 µM

CSCC[C@H](NC(=O)[C@H](CC(N)=O)NC(=O)[C@H](CCCN=C(N)N)NC(=O)[C@H](CCC(N)=O)NC(=O)[C@H](Cc1c[nH]c2ccccc12)NC(=O)[C@H](CCC(N)=O)NC(=O)[C@H](Cc1ccccc1)NC(=O)[C@@H](N)CS)C(=O)N[C@@H](CCCN=C(N)N)C(=O)N[C@@H](CCCCN)C(=O)N[C@H](C(=O)N[C@@H](CCCN=C(N)N)C(=O)O)C(C)C [CFQWQRNMRKVR]
MIC [13]: 7.57 µM (≈ 12.5 µg/mL)

CC[C@H](C)[C@H](NC(=O)[C@H](CCCCN)NC(=O)[C@H](Cc1c[nH]c2ccccc12)NC(=O)[C@H](Cc1c[nH]c2ccccc12)NC(=O)[C@@H](NC(=O)[C@H](CCCCN)NC(=O)[C@H](Cc1c[nH]c2ccccc12)NC(=O)[C@@H](N)CC(C)C)[C@@H](C)CC)C(=O)N[C@@H](Cc1c[nH]c2ccccc12)C(=O)N[C@@H](CCCN=C(N)N)C(=O)N[C@H](C(=O)N[C@@H](Cc1c[nH]c2ccccc12)C(=O)N[C@@H](CCCCN)C(=O)N[C@@H](CC(N)=O)C(=O)N[C@@H](Cc1c[nH]c2ccccc12)C(=O)N[C@@H](CCCN=C(N)N)C(=O)O)C(C)C [LWKIWWKIWRVWKNWR]
MIC [14]: ≥ 53.7 µM | MIC [6]: 26.8 µM (≈ 64 µg/mL) | MIC [15]: ≥ 53.7 µM | MIC [16]: 3.35 µM (≈ 7.99 µg/mL)

CC[C@H](C)[C@H](NC(=O)[C@H](CCCN=C(N)N)NC(=O)[C@H](CCC(N)=O)NC(=O)[C@H](CC(C)C)NC(=O)[C@@H](NC(=O)[C@H](CCCN=C(N)N)NC(=O)[C@H](CCCCN)NC(=O)[C@H](Cc1ccccc1)NC(C)=O)[C@@H](C)CC)C(=O)N[C@@H](CCCCN)C(=O)N[C@@H](CC(=O)O)C(=O)N[C@@H](Cc1ccccc1)C(=O)N[C@@H](CC(C)C)C(=O)N[C@@H](CCCN=C(N)N)C(N)=O [FKRILQRIKDFLR]
MIC (Bacillus subtilis DELTA): ≥ 57.7 µM | MIC (Candida parapsilosis): 23.1 µM (≈ 40.9 µg/mL) | MIC [17]: ≥ 57.7 µM | MIC [18]: 11.5 µM (≈ 20.5 µg/mL) | MIC [19]: 28.8 µM (≈ 51.2 µg/mL)

CC(C)C[C@H](NC(=O)[C@H](CCCCN)NC(=O)[C@H](CCCCN)NC(=O)[C@H](Cc1ccccc1)NC(=O)[C@H](CC(C)C)NC(=O)[C@@H](N)CCCCN)C(=O)N[C@@H](Cc1ccccc1)C(=O)N[C@@H](CCCCN)C(N)=O [KLFKKLFK]
MIC (Candida albicans DBFIQ 1): ≥ 122 µM | MIC (Candida albicans PEEC 2): ≥ 122 µM | MIC [20]: ≥ 122 µM | MIC [21]: 15.2 µM (≈ 16 µg/mL) | MIC [22]: 7.6 µM (≈ 7.98 µg/mL) | MIC [9]: 60.9 µM (≈ 64 µg/mL) | MIC [23]: 7.6 µM (≈ 7.98 µg/mL) | MIC [24]: 30.5 µM (≈ 32 µg/mL)

C[C@H](N)C(=O)N[C@@H](CCCN=C(N)N)C(=O)N[C@@H](Cc1c[nH]c2ccccc12)C(=O)N[C@@H](Cc1c[nH]c2ccccc12)C(=O)N[C@@H](Cc1c[nH]c2ccccc12)C(=O)N[C@@H](CCCN=C(N)N)C(=O)N[C@@H](C)C(N)=O [ARWWWRA]
MIC [25]: ≥ 128 µM | MIC [26]: ≥ 128 µM | MIC [27]: > 128 µM | MIC [28]: 16 µM (≈ 16.5 µg/mL) | MIC (Escherichia coli 780): ≥ 128 µM | MIC (Escherichia coli 804): ≥ 128 µM | MIC [8]: > 128 µM | MIC [29]: > 128 µM | MIC [30]: ≥ 128 µM | MIC [31]: ≥ 128 µM | MIC [9]: > 128 µM | MIC [32]: > 128 µM | MIC [33]: ≥ 64 µM | MIC (Staphylococcus aureus 75): ≥ 64 µM | MIC [23]: 64 µM and 128 µM | MIC [11]: 128 µM (≈ 132 µg/mL) | MIC [34]: 32 µM (≈ 33 µg/mL)
